Results: ChEMBL document CHEMBL5154782, “Discovery of Potent PROTACs Targeting EGFR Mutants through the Optimization of Covalent EGFR Ligands” (J Med Chem, 2022)
Active and inactive are the calls of the source. No cut-off for these calls is given here.

Legend:
[1] = target: T1, von Hippel-Lindau disease tumor suppressor/Epidermal growth factor receptor (Homo sapiens, UniProt P00533+P40337); experiment: Protac activity at VHL/EGFR deletion19 mutant in human HCC827 cells assessed as induction of EGFR degradation; type: cell-based
T1 sequence (P00533 25-1210 limits assumed, stated change not applied): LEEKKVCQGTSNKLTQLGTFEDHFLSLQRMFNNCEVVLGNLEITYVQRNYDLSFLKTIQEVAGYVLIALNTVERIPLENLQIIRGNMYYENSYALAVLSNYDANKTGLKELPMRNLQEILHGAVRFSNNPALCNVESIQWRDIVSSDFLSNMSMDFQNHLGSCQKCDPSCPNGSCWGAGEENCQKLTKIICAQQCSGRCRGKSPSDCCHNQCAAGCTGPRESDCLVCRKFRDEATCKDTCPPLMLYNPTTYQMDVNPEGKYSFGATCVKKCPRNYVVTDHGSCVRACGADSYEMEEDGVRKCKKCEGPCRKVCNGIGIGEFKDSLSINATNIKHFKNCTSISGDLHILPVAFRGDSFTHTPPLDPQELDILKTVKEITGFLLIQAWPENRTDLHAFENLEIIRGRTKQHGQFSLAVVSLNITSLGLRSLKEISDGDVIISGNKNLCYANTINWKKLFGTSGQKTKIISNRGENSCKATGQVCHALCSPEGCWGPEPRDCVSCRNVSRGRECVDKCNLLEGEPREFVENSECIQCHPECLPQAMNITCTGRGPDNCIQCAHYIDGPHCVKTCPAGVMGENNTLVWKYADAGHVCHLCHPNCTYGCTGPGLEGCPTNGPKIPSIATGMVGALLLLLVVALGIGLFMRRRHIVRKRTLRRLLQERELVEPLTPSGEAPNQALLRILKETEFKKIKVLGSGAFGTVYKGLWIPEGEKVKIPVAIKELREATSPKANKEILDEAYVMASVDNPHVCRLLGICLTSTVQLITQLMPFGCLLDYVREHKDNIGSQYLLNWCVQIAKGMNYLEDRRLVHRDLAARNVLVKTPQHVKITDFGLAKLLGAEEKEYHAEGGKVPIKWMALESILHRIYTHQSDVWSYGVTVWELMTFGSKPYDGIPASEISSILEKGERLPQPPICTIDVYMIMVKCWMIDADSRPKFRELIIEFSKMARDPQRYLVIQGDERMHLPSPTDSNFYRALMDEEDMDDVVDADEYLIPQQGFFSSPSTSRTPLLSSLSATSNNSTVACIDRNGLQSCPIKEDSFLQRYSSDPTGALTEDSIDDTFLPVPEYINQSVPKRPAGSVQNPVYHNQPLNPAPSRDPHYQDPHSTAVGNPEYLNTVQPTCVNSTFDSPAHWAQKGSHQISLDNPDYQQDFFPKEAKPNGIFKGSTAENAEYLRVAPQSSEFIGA
T1 sequence (P40337 whole entry, stated change not applied): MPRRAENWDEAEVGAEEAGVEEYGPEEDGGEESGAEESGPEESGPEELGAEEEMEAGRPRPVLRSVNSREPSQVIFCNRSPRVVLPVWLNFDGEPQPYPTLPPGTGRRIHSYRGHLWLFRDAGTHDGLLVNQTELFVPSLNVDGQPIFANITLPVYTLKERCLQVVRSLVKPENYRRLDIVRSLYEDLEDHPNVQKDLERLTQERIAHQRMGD

HCC827 [2] = experiment: Antiproliferative activity against human HCC827 cells expressing EGFR deletion19 mutant assessed as inhibition of cell proliferation; type: functional, cell-based
[3] = target: T1, von Hippel-Lindau disease tumor suppressor/Epidermal growth factor receptor; experiment: Protac activity at VHL/EGFR deletion19 mutant in human HCC827 cells assessed as induction of EGFR degradation under starvation condition; type: cell-based
HCC827 [4] = experiment: Antiproliferative activity against human HCC827 cells expressing EGFR deletion19 mutant assessed as inhibition of cell proliferation incubated for 72 hrs by MTT assay; type: functional, cell-based; details: HCC827, 72 h
[5] = system: von Hippel-Lindau disease tumor suppressor/Epidermal growth factor receptor (Homo sapiens), P00533+P40337 [UNDEFINED MUTATION]; experiment: Protac activity at VHL/EGFR/deletion19 in human HCC827 cells assessed as induction of EGFR degradation at 1 to 30 nM incubated for 24 hrs by Western blot analysis; type: cell-based; details: dose 1-30 nM
Sequence of von Hippel-Lindau disease tumor suppressor/Epidermal growth factor receptor (Homo sapiens), P00533+P40337 [UNDEFINED MUTATION] (P00533 whole entry, looked up, stated change not applied): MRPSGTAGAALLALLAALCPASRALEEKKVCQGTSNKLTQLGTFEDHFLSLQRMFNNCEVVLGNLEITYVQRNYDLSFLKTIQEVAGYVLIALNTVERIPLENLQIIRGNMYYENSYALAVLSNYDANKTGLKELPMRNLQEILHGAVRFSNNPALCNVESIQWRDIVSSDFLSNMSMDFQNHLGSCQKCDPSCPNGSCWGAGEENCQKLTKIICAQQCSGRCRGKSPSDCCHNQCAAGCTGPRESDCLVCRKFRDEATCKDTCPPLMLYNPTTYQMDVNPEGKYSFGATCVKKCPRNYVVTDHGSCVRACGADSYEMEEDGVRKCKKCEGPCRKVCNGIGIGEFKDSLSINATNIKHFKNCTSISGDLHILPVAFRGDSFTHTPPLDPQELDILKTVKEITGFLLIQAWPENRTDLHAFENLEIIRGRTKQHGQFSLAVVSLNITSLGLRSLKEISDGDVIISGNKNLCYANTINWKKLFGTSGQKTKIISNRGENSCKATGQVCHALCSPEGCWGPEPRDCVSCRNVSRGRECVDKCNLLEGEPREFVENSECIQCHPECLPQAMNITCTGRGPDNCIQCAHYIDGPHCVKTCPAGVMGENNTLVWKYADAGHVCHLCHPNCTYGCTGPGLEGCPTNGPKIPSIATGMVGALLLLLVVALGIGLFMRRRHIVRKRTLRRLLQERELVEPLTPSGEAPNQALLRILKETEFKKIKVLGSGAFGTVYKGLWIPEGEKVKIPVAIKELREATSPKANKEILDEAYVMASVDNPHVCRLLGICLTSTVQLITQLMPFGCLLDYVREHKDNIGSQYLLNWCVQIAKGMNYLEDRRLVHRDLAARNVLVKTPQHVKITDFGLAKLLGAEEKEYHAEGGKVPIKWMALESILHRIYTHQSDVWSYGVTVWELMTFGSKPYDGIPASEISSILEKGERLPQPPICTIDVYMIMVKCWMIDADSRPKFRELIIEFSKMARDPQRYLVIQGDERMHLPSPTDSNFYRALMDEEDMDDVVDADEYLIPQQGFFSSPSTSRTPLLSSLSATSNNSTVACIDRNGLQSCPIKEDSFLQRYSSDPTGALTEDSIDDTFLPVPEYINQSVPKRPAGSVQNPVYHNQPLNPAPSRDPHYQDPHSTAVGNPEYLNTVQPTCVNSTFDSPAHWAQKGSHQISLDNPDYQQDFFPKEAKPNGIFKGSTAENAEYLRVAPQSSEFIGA
Sequence of von Hippel-Lindau disease tumor suppressor/Epidermal growth factor receptor (Homo sapiens), P00533+P40337 [UNDEFINED MUTATION] (P40337 whole entry, looked up, stated change not applied): as the sequence (P40337 whole entry, stated change not applied) above

NCI-H1975 = experiment: Antiproliferative activity against human NCI-H1975 cells expressing EGFR L858R/T790M mutant assessed as inhibition of cell proliferation incubated for 72 hrs by MTT assay; type: functional, cell-based; details: NCI-H1975, 72 h

`Cc1ncsc1-c1ccc(CNC(=O)[C@@H]2C[C@@H](O)CN2C(=O)[C@@H](NC(=O)CCCCCCN2CCN(c3ccc(Nc4ncc5nc(Nc6ccccc6)n(C6CCCC6)c5n4)cc3)CC2)C(C)(C)C)cc1` showed a DC50 [1] of 0.51 nM and an IC50 (HCC827 [2]) of 0.76 nM.

With `COc1cc2ncnc(Nc3ccc(F)c(Cl)c3)c2cc1OCCCN1CCN(C(=O)CCCCCCCCCC(=O)N[C@H](C(=O)N2C[C@H](O)C[C@H]2C(=O)NCc2ccc(-c3scnc3C)cc2)C(C)(C)C)CC1` the DC50 [3] was 5 nM.

With `CCC(=O)N1CCC[C@H](n2c(Nc3ccccc3)nc3cnc(Nc4ccc(N5CCN(CCCCCCCC(=O)N[C@H](C(=O)N6C[C@H](O)C[C@H]6C(=O)N[C@@H](C)c6ccc(-c7scnc7C)cc6)C(C)(C)C)CC5)cc4)nc32)C1` the IC50 (HCC827 [4]) was 5.39 nM, the Activity [5] was “Active” and the IC50 (NCI-H1975) was 2900 nM.
